Data on three molecules can be found in US20100105768A1, “MOLD-INHIBITING METHOD AND COMPOSITION” (priority 2008, published 2010).

For one experiment, the system named is mold/stain fungi. As to the kind of experiment: Dip treated fresh cut white pine blocks in sealed bags, visual mold and stain growth rating (Example 5). The settings on record: 1% dip solution; for Visual evaluation Week 1 / Visual evaluation Week 2 / Visual evaluation Week 3 / Visual evaluation Week 4 / Visual evaluation Week 5 / Visual evaluation Week 6 / Visual evaluation Week 8: one minute, white pine blocks, no inoculation; for Efficacy against mold/stain fungi (in words): 8 weeks. It counts as cell-based. The text has this: Fresh cut white pine blocks (7.6×6.35×3.8 cm^3) were dipped in the prepared test formulation for one minute. The individual dipped wood block was placed in a plastic sandwich bag and the plastic bag was sealed to retain the moisture of the test wood blocks. No mold or stain fungi were inoculated on the test blocks. […] The test was completed in 8 weeks.

In a further experiment the test system is A. niger and P. citrinum. In words: Visual mold growth rating on gypsum cuboids placed on inoculated Sabouraud's Dextrose Agar (Example 2). It counts as cell-based. The settings on record: for Visual evaluation Week 1 / Visual evaluation Week 2 / Visual evaluation Week 3 / Visual evaluation Week 4: 26° C., 70% relative humidity. From the text:
Gypsum cuboids (30×40×25 mm^3) were made with the addition of the following formulations: • Sodium dehydroacetic acid (Na-DHA): 2500 ppm and 5000 ppm. • Carboquat® 250T ^3: 2500 ppm and 5000 ppm. • Carboquat® 250T/DHA 10:4 (wt./wt.): 2500 ppm and 5000 ppm. • ^3 Carboquat® 250T is an essentially aqueous solution containing approx. 50% of a mixture of carbonate and bicarbonate of didecyldimethylammonium. Carboquat® 250T is available from Lonza Inc., Allendale N.J.
Glass containers with Sabouraud's Dextrose Agar (SDA) on the bottom were prepared. Freshly-made spore suspensions of A. niger and P. citrinum were spread on the surface of SDA. The gypsum cuboids were air-dried and then placed on the top of the inoculated SDA. The containers were covered by aluminum foil and placed in an incubator with pre-set temperature of 26° C. and relative humidity of 70%. The test was completed at 4 weeks. Visual observation of mold growth on the gypsum cuboids was recorded weekly using the same rating system as in Example 1.

As for `O=C([O-])c1ccccc1.[Na+]` [Na-Benzoate], in the experiment with mold/stain fungi, the “Visual evaluation Week 1” value was 2 (Medium mold growth (6-25% mold coverage)), the “Visual evaluation Week 2” value was 4 (Severe mold growth (>50% mold coverage)), the “Visual evaluation Week 3” value is 4 (Severe mold growth (>50% mold coverage)) and the “Visual evaluation Week 4” value is on record as 4 (Severe mold growth (>50% mold coverage)). Also, in the experiment with mold/stain fungi, the “Visual evaluation Week 5” value is on record as 4 (Severe mold growth (>50% mold coverage)), the “Visual evaluation Week 6” value is given as 4 (Severe mold growth (>50% mold coverage)), the “Visual evaluation Week 8” value is recorded as 4 (Severe mold growth (>50% mold coverage)) and the “Efficacy against mold/stain fungi (in words)” value was “no efficacy”.
For the molecule `C/C=C/C=C/C(=O)[O-].[Na+]` [Na-Sorbate], in the experiment with mold/stain fungi, the “Visual evaluation Week 1” value is 2 (Medium mold growth (6-25% mold coverage)), the “Visual evaluation Week 2” value is on record as 4 (Severe mold growth (>50% mold coverage)), the “Visual evaluation Week 3” value is on record as 4 (Severe mold growth (>50% mold coverage)) and the “Visual evaluation Week 4” value is on record as 4 (Severe mold growth (>50% mold coverage)). Besides, in the experiment with mold/stain fungi, the “Visual evaluation Week 5” value is 4 (Severe mold growth (>50% mold coverage)), the “Visual evaluation Week 6” value is listed as 4 (Severe mold growth (>50% mold coverage)), the “Visual evaluation Week 8” value was 4 (Severe mold growth (>50% mold coverage)) and the “Efficacy against mold/stain fungi (in words)” value is given as “no efficacy”.
In the case of `CC(=O)c1c([O-])cc(C)oc1=O.[Na+]` [Na-DHA, Sodium dehydroacetic acid], in the experiment on mold/stain fungi, the “Visual evaluation Week 1” value stood at 0, the “Visual evaluation Week 2” value is listed as 0, the “Visual evaluation Week 3” value was 0 and the “Visual evaluation Week 4” value amounted to 0. In addition, in the experiment on mold/stain fungi, the “Visual evaluation Week 5” value is on record as 1 (Slight mold growth (<5% mold coverage)), the “Visual evaluation Week 6” value is given as 1 (Slight mold growth (<5% mold coverage)), the “Visual evaluation Week 8” value is 2 (Medium mold growth (6-25% mold coverage)) and the “Efficacy against mold/stain fungi (in words)” value is “strong efficacy”. Moreover, in the experiment on A. niger and P. citrinum (2500 ppm in gypsum cuboid), the “Visual evaluation Week 1” value came out at 0, the “Visual evaluation Week 2” value is 2 (Medium mold growth (6-25% mold coverage)), the “Visual evaluation Week 3” value is 3 (Heavy mold growth (26-50% mold coverage)) and the “Visual evaluation Week 4” value is 3 (Heavy mold growth (26-50% mold coverage)). For the same molecule, in the experiment on A. niger and P. citrinum (5000 ppm), the “Mold growth on gypsum cuboids (in words)” value is given as “no mold growth”. In the experiment with A. niger and P. citrinum (5000 ppm in gypsum cuboid), the “Visual evaluation Week 1” value was 0, the “Visual evaluation Week 2” value stood at 0, the “Visual evaluation Week 3” value is listed as 0 and the “Visual evaluation Week 4” value is on record as 0.
